Source: patent publication US4576956A, “Iodo propargylaminoisoxazoles as fungicides” (Shionogi & Co., Ltd., priority 1982, dated 1986)
In brackets after ≈: the same amount, converted by molar mass.

These molecules were tested on Sclerotinia sclerotiorum (assay: Test B-2 Control Test to Sclerotinia Rot of Cucumber). Settings: 48 h, 2 days, read-out: Percent Disease Control.
Format: in vivo
Experimental: Test B-2 Control Test to Sclerotinia Rot of Cucumber
Cucumber seedlings were sprayed with 2.5 ml of a test solution in the same manner as in Test B-1. Afterthe spraying, the seedlings were kept at 25°-26° C. for a day and three disks of 4 mm in diameter containing mycelia of Sclerotinia sclerotiorum were put on a primary leaf and then 10 μl of PD broth were dropped on the disks. The treated seedlings were kept ina greenhouse (20° C.) for 2 days and then the diameters of the disease spots were measured by a pair of slide callipers. [formula]
`Cc1noc(NCC#CI)c1C` [Comp. 19] gave a pest or weed control at 500 ppm of 100%. Work on `Cc1noc(N(C)CC#CI)c1C` [Comp. 20] yielded a pest or weed control at 500 ppm of 100%. Molecule `Cc1onc(N(C)CC#CI)c1Cl` [compound 33, 3-(N-methyl-N-3-iodo-2-propynyl)amino-4-chloro-5-methylisoxazole] has a pest or weed control at 500 ppm of 100%.

The molecules below were run on Trichophyton asteroides (assay: Test A-2 Anti-fungal Activity (MCC)). Settings: 168 h, read-out: MCC (Minimal Cidal Concentration).
Experimental: (§12) Some MCC (Minimal Cidal Concentration) values (Table 1) were obtained against Candida albicans and Trichophyton asteroides by the following method. After the MIC value was obtained by the microwell method, a loopful amount was picked up from the medium in which no growth of the fungus was observed, inoculated into a Subrouraud's glucose agar medium and incubated at 28° C. for 2 days in the case of C. albicans and for 7 days in the case of T. asteroides.
In the case of `CCN(CC#CI)c1cc(C)no1` [Comp. 4], the MFC was 3.1 µg/mL (≈ 10.7 µM). With `CN(CC#CI)c1cc(-c2cccs2)no1` [Comp. 11] the MFC was 1.6 µg/mL (≈ 4.65 µM). Molecule `Cc1noc(N(C)CC#CI)c1C` [Comp. 20] has an MFC of 3.1 µg/mL (≈ 10.7 µM). With `Clc1ccccc1C(c1ccccc1)(c1ccccc1)n1ccnc1` [Ref. Comp., Clotrimazole, reference compound] the MFC was 6.3 µg/mL (≈ 18.3 µM).

The molecules below were run on Candida albicans M-9 (assay: Test A-1 Anti-fungal Activity (MIC), microwell dilution). Settings: M9, C. albicans M-9, in vitro, 1×10^5 cells/ml.
Format: cell-based
Experimental: (§1) Test A-1 Anti-fungal Activity (MIC)
(§2) The concentration of the test cells was 1×10^5 cells/ml and the activity was measured by a microwell dilution method. The structure of the test compounds is referred to in the Examples.
In the case of `Clc1c(-c2ccccc2)noc1NCC#CI` [Comp. 2, 3-phenyl-4-chloro-5-(3-iodo-2-propynyl)aminoisoxazole], the MIC was 0.1 µg/mL (≈ 0.279 µM). Work on `CCN(CC#CI)c1cc(C)no1` [Comp. 4] yielded an MIC of 0.8 µg/mL (≈ 2.76 µM). Molecule `CN(CC#CI)c1cc(-c2cccs2)no1` [Comp. 11] has an MIC of 0.8 µg/mL (≈ 2.32 µM). `Cc1noc(NCC#CI)c1C` [Comp. 19] gave an MIC of 0.8 µg/mL (≈ 2.9 µM). For `Cc1noc(N(C)CC#CI)c1C` [Comp. 20], the MIC was 0.8 µg/mL (≈ 2.76 µM). `Clc1ccccc1C(c1ccccc1)(c1ccccc1)n1ccnc1` [Ref. Comp., Clotrimazole, reference compound] gave an MIC of 6.3 µg/mL (≈ 18.3 µM). `Cc1onc(N(C)CC#CI)c1Cl` [compound 33, 3-(N-methyl-N-3-iodo-2-propynyl)amino-4-chloro-5-methylisoxazole] showed an MIC of 1.6 µg/mL (≈ 5.15 µM).

What follows are molecules tested on Aspergillus fumigatus in the same assay as above. Settings: in vitro, 1×10^5 cells/ml.
Format: cell-based
Experimental: as §1, §2
In the case of `Clc1c(-c2ccccc2)noc1NCC#CI` [Comp. 2, 3-phenyl-4-chloro-5-(3-iodo-2-propynyl)aminoisoxazole], the MIC was 6.2 µg/mL (≈ 17.3 µM). Work on `CCN(CC#CI)c1cc(C)no1` [Comp. 4] yielded an MIC of 1.6 µg/mL (≈ 5.52 µM). `CN(CC#CI)c1cc(-c2cccs2)no1` [Comp. 11] gave an MIC of 3.1 µg/mL (≈ 9.01 µM). For `Cc1noc(NCC#CI)c1C` [Comp. 19], the MIC was 3.1 µg/mL (≈ 11.2 µM). Work on `Cc1noc(N(C)CC#CI)c1C` [Comp. 20] yielded an MIC of 0.8 µg/mL (≈ 2.76 µM). For `Clc1ccccc1C(c1ccccc1)(c1ccccc1)n1ccnc1` [Ref. Comp., Clotrimazole, reference compound], the MIC was 12.5 µg/mL (≈ 36.2 µM). In the case of `Cc1onc(N(C)CC#CI)c1Cl` [compound 33, 3-(N-methyl-N-3-iodo-2-propynyl)amino-4-chloro-5-methylisoxazole], the MIC was 3.1 µg/mL (≈ 9.98 µM).

Each molecule was assayed on Pyricularia oryzae (assay: not given). Settings: 500 ppm; rice plant blast, 24 hours + 7 days.
Format: in vivo
For `Cc1noc(NCC#CI)c1C` [Comp. 19], the “Percent Disease Control” value was 100%. With `Cc1noc(N(C)CC#CI)c1C` [Comp. 20] the “Percent Disease Control” value was 100%.

The molecules below were run on Candida albicans (assay: Test A-2 Anti-fungal Activity (MCC)). Settings: 48 h, read-out: MCC (Minimal Cidal Concentration).
Experimental: as §12
`CCN(CC#CI)c1cc(C)no1` [Comp. 4] was tested, and the MFC was 25 µg/mL (≈ 86.2 µM). `CN(CC#CI)c1cc(-c2cccs2)no1` [Comp. 11] showed an MFC of 12.5 µg/mL (≈ 36.3 µM). Work on `Cc1noc(N(C)CC#CI)c1C` [Comp. 20] yielded an MFC of 50 µg/mL (≈ 172 µM). `Clc1ccccc1C(c1ccccc1)(c1ccccc1)n1ccnc1` [Ref. Comp., Clotrimazole, reference compound] was tested, and the MFC was > 100 µg/mL.

Each molecule was assayed on Botrytis cinerea (assay: Test B-1 Control Test of Botrytis Rot (Gray Mold) of Cucumber). Settings: 500 ppm, 3 days.
Format: in vivo
Experimental: Test B-1 Control Test of Botrytis Rot (Gray Mold) of Cucumber Seedlings of Cucumber (Cultivar: Matsukaze) were planted and grown in soil in vinyl-chloride cups of 9 cm in diameter in a greenhouse. […] The treated cucumbers were kept for 3 days in a greenhouse (20° C.) and then disease degrees were counted. Standard of Evaluation […] (2) A slight soaked lesion on the reverse of the test leaf . . . × 5 (3) A slight fade of the leaf . . . × 10 (4) The inoculated part was faded and the fading expanded erosively . . . × 20 [formula]
`CN(CC#CI)c1cc(-c2cccs2)no1` [Comp. 11] was tested, and the “Percent Disease Control” value was 100%.

The molecules below were run on Trichophyton asteroides (assay: Test A-1 Anti-fungal Activity (MIC), microwell dilution). Settings: T. asteroides, in vitro, 1×10^5 cells/ml.
Format: cell-based
Experimental: as §1
The following results (Table 1) were obtained in an anti-fungal activity test in vitro against Aspergillus fumigatus, Candida albicans M-9 and Trichophyton asteroides. The concentration of the test cells was 1×10^5 cells/ml and the activity was measured by a microwell dilution method. The structure of the test compounds is referred to in the Examples.
In the case of `Clc1c(-c2ccccc2)noc1NCC#CI` [Comp. 2, 3-phenyl-4-chloro-5-(3-iodo-2-propynyl)aminoisoxazole], the MIC was 0.4 µg/mL (≈ 1.12 µM). For `CCN(CC#CI)c1cc(C)no1` [Comp. 4], the MIC was 1.6 µg/mL (≈ 5.52 µM). `CN(CC#CI)c1cc(-c2cccs2)no1` [Comp. 11] gave an MIC of 1.6 µg/mL (≈ 4.65 µM). `Cc1noc(NCC#CI)c1C` [Comp. 19] showed an MIC of 0.8 µg/mL (≈ 2.9 µM). In the case of `Cc1noc(N(C)CC#CI)c1C` [Comp. 20], the MIC was 0.8 µg/mL (≈ 2.76 µM). `Clc1ccccc1C(c1ccccc1)(c1ccccc1)n1ccnc1` [Ref. Comp., Clotrimazole, reference compound] showed an MIC of 0.2 µg/mL (≈ 0.58 µM). Molecule `Cc1onc(N(C)CC#CI)c1Cl` [compound 33, 3-(N-methyl-N-3-iodo-2-propynyl)amino-4-chloro-5-methylisoxazole] has an MIC of 0.8 µg/mL (≈ 2.58 µM).

What follows are molecules tested on Pythium aphanidermatum (assay: Test B-6 Control Test to Damping-off of Cucumber). Settings: P*, 500 ppm, soil drench, 1 week.
Format: in vivo
Experimental: (§3) Test B-6 Control Test to Damping-off of Cucumber
(§4) Twenty cucumber seeds were sown into sterilized soil (150 ml) in a pot of 9 cm in diameter. The fungi, Phythium aphanidermatum, Fusarium oxysporum and Rhizoctonia solani were cultured on a wheat bran medium for 5 days and an additional 2 days thereafter were mixed with sterilized soil. The surface of the sown spots was covered with the above culture medium. A test solution (30 ml) at a prescribed concentration was poured into each pot. The pots were kept in a greenhouse (28° C.) for 1 week in the case of Pythium and Rhizoctonia and for 2 weeks in the case of Fusarium.
(§5) The disease degree was observed and percent disease degree was calculated by the following formula: […]
(§6) (1) No germination . . . x 4
(§7) (2) Germed but withered . . . x 3
(§8) (3) Disordered in 1/3 or more . . . x 2
(§9) (4) Disordered in less than 1/3 . . . x 1
(§10) (5) Not damaged . . . x 0 [formula]
(§11) The percent disease control was calculated in the same manner as in Test B-1.
In the case of `Cc1noc(NCC#CI)c1C` [Comp. 19], the “Percent Disease Control” value was 100%. `Cc1noc(N(C)CC#CI)c1C` [Comp. 20] was tested, and the “Percent Disease Control” value was 100%.

Each molecule was assayed on Fusarium oxysporum (assay: Test B-6 Control Test to Damping-off of Cucumber). Settings: F*, 500 ppm, soil drench, 2 weeks.
Format: in vivo
Experimental: as §3, §4, §5, §6, §7, §8, §9, §10, §11
With `Cc1noc(NCC#CI)c1C` [Comp. 19] the “Percent Disease Control” value was 78%. For `Cc1noc(N(C)CC#CI)c1C` [Comp. 20], the “Percent Disease Control” value was 57%.

Each molecule was assayed on Rhizoctonia solani (assay: Test B-6 Control Test to Damping-off of Cucumber). Settings: R*, 500 ppm, soil drench, 1 week.
Format: in vivo
Experimental: as §3, §4, §5, §6, §7, §8, §9, §10, §11
In the case of `Cc1noc(NCC#CI)c1C` [Comp. 19], the “Percent Disease Control” value was 100%. For `Cc1noc(N(C)CC#CI)c1C` [Comp. 20], the “Percent Disease Control” value was 100%.

The molecules below were run on Pseudoperonospora cubensis (assay: Test B-3 Control Test to Downy Mildew of Cucumber). Settings: 500 ppm, 7 days.
Format: in vivo
Experimental: Test B-3 Control Test to Downy Mildew of Cucumber
Each cucumber seedling was sprayed with 2.5 ml of a test solution in the same manner as in Test B-1. After the spraying, the seedlings were kept at 25°-26° C. for a day and a zoosporangium suspension or Pseudoperonospora cubensis was inoculated at a rate of five spots per leaf on a primary leaf. The treated seedlings were kept in a greenhouse for 7 days and then observed.
(2) Slight disease at the inoculation spot . . . X5
(3) A disease spot in the same size as the inoculation spot (without spreading) . . . x10
(4) A disease spot larger than the inoculation spot . . . x20
Disease degree and percent disease control were calculated in the same manner as in Test B-1.
With `Cc1onc(N(C)CC#CI)c1Cl` [compound 33, 3-(N-methyl-N-3-iodo-2-propynyl)amino-4-chloro-5-methylisoxazole] the “Percent Disease Control” value was 100%.

These molecules were tested on Mycoplasma gallisepticum (assay: minimum inhibition concentration). Settings: Mycoplasmoides gallisepticum, one range for the listed compounds.
Format: cell-based
Molecule `Cc1noc(NCC#CI)c1C` [Comp. 19] has an MIC of 6.25 to 12.5 µg/mL (≈ 22.6 to 45.3 µM). `Cc1noc(N(C)CC#CI)c1C` [Comp. 20] gave an MIC of 6.25 to 12.5 µg/mL (≈ 21.5 to 43.1 µM).

Each molecule was assayed on Colletotrichum lagenarium (assay: Test B-4 Control Test to Anthracnose of Cucumber). Settings: 500 ppm, 3 + 3 days.
Format: in vivo
Experimental: Test B-4 Control Test to Anthracnose of Cucumber Each cucumber seedling was sprayed with 2.5 ml of a test solution in the same manner as in Test B-1. After the spraying, the seedlings were kept at 25°-26° C. for a day and were inoculated with five filter-paper disks of 6 mm in diameter saturated with a conidium suspension of Colletotrichum lagenarium at a concentration of 1×10^6 conidia/ml. The treated seedlings were kept in a greenhouse (25° C.) for 3 days and further kept at below 25° C. for 3 days. Standard of Evaluation The same as noted in Test B-3.
`Cc1noc(NCC#CI)c1C` [Comp. 19] was tested, and the “Percent Disease Control” value was 100%.
